Assay results reported in patent US5416081A, “Cephalosporin compounds” (Lucky Limited, priority 1992, dated 1995).
Converted amounts (≈) assume the structure as drawn. Like-named read-outs stand apart in the source and are kept apart here.

How the values were obtained:
Format in all cases: cell-based
[1] = system: S. aureus/6538pA; test: MIC against standard strain by two-fold agar dilution, S. aureus/6538pA; conditions: Staphylococcus aureus
Description: (§1) These MIC values were taken by employing a two-fold dilution method: that is, two-fold serial dilutions of each of the test compounds were made and dispersed in a Muller-Hinton agar medium; 2 μl of the standard test strain which had the 10^7 CFU(Colony Forming Unit) per ml was inoculated on the medium; and these were incubated at 37° C. for 20 hours.

[2] = system: S. aureus/giorigio; test: MIC against standard strain by two-fold agar dilution, S. aureus/giorigio; conditions: Staphylococcus aureus
Description: as §1

[3] = system: E. cloacae/1194E; test: MIC against standard strain by two-fold agar dilution, E. cloacae/1194E; conditions: Enterobacter cloacae
Description: as §1

[4] = system: K. aerogenes/1776E; test: MIC against standard strain by two-fold agar dilution, K. aerogenes/1776E; conditions: Klebsiella aerogenes
Description: as §1

[5] = system: S. typhimunium/14028A; test: MIC against standard strain by two-fold agar dilution, S. typhimunium/14028A
Description: as §1

[6] = system: E. coli TEM1/1193E; test: MIC against standard strain by two-fold agar dilution, E. coli TEM1/1193E; conditions: Escherichia coli, 20 h
Description: as §1

[7] = system: E. coli TEM5/3739E; test: MIC against standard strain by two-fold agar dilution, E. coli TEM5/3739E; conditions: Escherichia coli, 20 h
Description: as §1

[8] = system: A. calcoaceticus /15473A; test: MIC against standard strain by two-fold agar dilution, A. calcoaceticus /15473A; conditions: Acinetobacter calcoaceticus
Description: as §1

[9] = system: E. coli TEM9/2639E; test: MIC against standard strain by two-fold agar dilution, E. coli TEM9/2639E; conditions: Escherichia coli, 20 h
Description: as §1

[10] = system: P. aeruginosa/1912E; test: MIC against standard strain by two-fold agar dilution, P. aeruginosa/1912E; conditions: Pseudomonas aeruginosa
Description: as §1

[11] = system: E. coli/3190Y; test: MIC against standard strain by two-fold agar dilution, E. coli/3190Y; conditions: Escherichia coli
Description: as §1

[12] = system: P. aeruginosa/6065Y; test: MIC against standard strain by two-fold agar dilution, P. aeruginosa/6065Y; conditions: Pseudomonas aeruginosa
Description: as §1

[13] = system: E. coli/10536; test: MIC against standard strain by two-fold agar dilution, E. coli/10536; conditions: Escherichia coli
Description: as §1

[14] = system: S. marcescens/1826E; test: MIC against standard strain by two-fold agar dilution, S. marcescens/1826E; conditions: Serratia marcescens
Description: as §1

[15] = system: P. aeruginosa/10145; test: MIC against standard strain by two-fold agar dilution, P. aeruginosa/10145; conditions: Pseudomonas aeruginosa
Description: as §1

[16] = system: S. aureus/77; test: MIC against standard strain by two-fold agar dilution, S. aureus/77; conditions: Staphylococcus aureus
Description: as §1

[17] = S. aureus/6538pA, Muller-Hinton agar, 37° C., 20 hours, read-out: MIC
[18] = S. aureus/giorigio, Muller-Hinton agar, 37° C., 20 hours, read-out: MIC
[19] = E. cloacae/1194E, Muller-Hinton agar, 37° C., 20 hours, read-out: MIC
[20] = K. aerogenes/1776E, Muller-Hinton agar, 37° C., 20 hours, read-out: MIC
[21] = S. typhimunium/14028A, Muller-Hinton agar, 37° C., 20 hours, read-out: MIC
[22] = A. calcoaceticus /15473A, Muller-Hinton agar, 37° C., 20 hours, read-out: MIC
[23] = P. aeruginosa/1912E, Muller-Hinton agar, 37° C., 20 hours, read-out: MIC
[24] = E. coli/3190Y, Muller-Hinton agar, 37° C., 20 hours, read-out: MIC
[25] = P. aeruginosa/6065Y, Muller-Hinton agar, 37° C., 20 hours, read-out: MIC
[26] = E. coli/10536, Muller-Hinton agar, 37° C., 20 hours, read-out: MIC
[27] = S. marcescens/1826E, Muller-Hinton agar, 37° C., 20 hours, read-out: MIC
[28] = P. aeruginosa/10145, Muller-Hinton agar, 37° C., 20 hours, read-out: MIC
[29] = S. aureus/77, Muller-Hinton agar, 37° C., 20 hours, read-out: MIC

Nc1nc(/C(=N/OC2(C(=O)O)CCCC2)C(=O)NC2C(=O)N3C(C(=O)[O-])=C(CSc4nc(N)c5c([n+]4N)CCC5)CSC23)cs1 (centres unmarked) [Compound I-11, 7-[(Z)-2-(2-aminothiazol-4-yl)-2-(1-carboxycyclopent-1-oxyimino)acetamido]-3-(1,4-diamino-1,5,6,7-tetrahydro-cyclopentapyrimidinium-2-yl)thiomethyl-3-cephem-4-carboxylate]
MIC [1, 17]: 2 µg/mL (≈ 2.96 µM) | MIC [2, 18]: 1 µg/mL (≈ 1.48 µM) | MIC [3, 19]: 4 µg/mL (≈ 5.92 µM) | MIC [4, 20]: 0.13 µg/mL (≈ 0.192 µM) | MIC [5, 21]: 0.25 µg/mL (≈ 0.37 µM) | MIC [6]: 0.13 µg/mL (≈ 0.192 µM) | MIC [7]: 0.25 µg/mL (≈ 0.37 µM) | MIC [8, 22]: 1 µg/mL (≈ 1.48 µM) | MIC [9]: 2 µg/mL (≈ 2.96 µM) | MIC [10, 23]: 0.5 µg/mL (≈ 0.74 µM) | MIC [11, 24]: ≤ 0.008 µg/mL | MIC [12, 25]: 8 µg/mL (≈ 11.8 µM) | MIC [13, 26]: 0.016 µg/mL (≈ 0.0237 µM) | MIC [14, 27]: 0.25 µg/mL (≈ 0.37 µM) | MIC [15, 28]: 1 µg/mL (≈ 1.48 µM) | MIC [16, 29]: 16 µg/mL (≈ 23.7 µM)

C[n+]1c(SCC2=C(C(=O)[O-])N3C(=O)C(NC(=O)/C(=N\OC4(C(=O)O)CCCC4)c4csc(N)n4)C3SC2)nc(N)c2c1CCC2 (centres unmarked) [Compound I-12, 7-[(Z)-2-(2-aminothiazol-4-yl}-2-(1-carboxycyclopent-1-oxyimino)acetamido]-3-(4-amino-1-methyl-1,5,6,7-tetrahydro-cyclopenta-pyrimidinium-2-yl)thiomethyl-3-cephem-4-carboxylate]
MIC [1, 17]: 2 µg/mL (≈ 2.96 µM) | MIC [2, 18]: 2 µg/mL (≈ 2.96 µM) | MIC [3, 19]: 8 µg/mL (≈ 11.9 µM) | MIC [4, 20]: 0.13 µg/mL (≈ 0.193 µM) | MIC [5, 21]: 0.25 µg/mL (≈ 0.37 µM) | MIC [6]: 0.13 µg/mL (≈ 0.193 µM) | MIC [7]: 0.5 µg/mL (≈ 0.741 µM) | MIC [8, 22]: 2 µg/mL (≈ 2.96 µM) | MIC [9]: 4 µg/mL (≈ 5.93 µM) | MIC [10, 23]: 1 µg/mL (≈ 1.48 µM) | MIC [11, 24]: 0.063 µg/mL (≈ 0.0934 µM) | MIC [12, 25]: 16 µg/mL (≈ 23.7 µM) | MIC [13, 26]: 0.016 µg/mL (≈ 0.0237 µM) | MIC [14, 27]: 0.25 µg/mL (≈ 0.37 µM) | MIC [15, 28]: 2 µg/mL (≈ 2.96 µM) | MIC [16, 29]: 8 µg/mL (≈ 11.9 µM)

C[C@H](O/N=C(\C(=O)NC1C(=O)N2C(C(=O)[O-])=C(CSc3nc(N)c4c([n+]3N)CCC4)CSC12)c1csc(N)n1)C(=O)O (stereo partly drawn) [I-5(S), 7-[(Z)-2-(2-aminothiazol-4-yl)-2-((S)-1-carboxyeth-1-oxyimino)acetamido]-3-(1,4-diamino-1,5,6,7-tetrahydro-cyclopentapyrimidinium-2-yl)thiomethyl-3-cephem-4-carboxylate]
MIC ([1]; 20 h): 4 µg/mL (≈ 6.29 µM) | MIC [2, 18]: 2 µg/mL (≈ 3.15 µM) | MIC [3, 19]: 8 µg/mL (≈ 12.6 µM) | MIC [4, 20]: 0.13 µg/mL (≈ 0.204 µM) | MIC [5, 21]: 0.25 µg/mL (≈ 0.393 µM) | MIC [6]: 0.031 µg/mL (≈ 0.0488 µM) | MIC [7]: 2 µg/mL (≈ 3.15 µM) | MIC [8, 22]: 2 µg/mL (≈ 3.15 µM) | MIC [9]: 8 µg/mL (≈ 12.6 µM) | MIC [10, 23]: 1 µg/mL (≈ 1.57 µM) | MIC ([11]; 20 h): ≤ 0.008 µg/mL | MIC [12, 25]: 8 µg/mL (≈ 12.6 µM) | MIC ([13]; 20 h): 0.016 µg/mL (≈ 0.0252 µM) | MIC [14, 27]: 0.25 µg/mL (≈ 0.393 µM) | MIC [15, 28]: 2 µg/mL (≈ 3.15 µM) | MIC [16, 29]: 8 µg/mL (≈ 12.6 µM)

C[C@H](O/N=C(\C(=O)NC1C(=O)N2C(C(=O)[O-])=C(CSc3nc(N)c4c([n+]3C)CCC4)CSC12)c1csc(N)n1)C(=O)O (stereo partly drawn) [I-6(S)]
MIC [1, 17]: 4 µg/mL (≈ 6.3 µM) | MIC [2, 18]: 2 µg/mL (≈ 3.15 µM) | MIC [3, 19]: 4 µg/mL (≈ 6.3 µM) | MIC [4, 20]: 0.13 µg/mL (≈ 0.205 µM) | MIC [5, 21]: 0.25 µg/mL (≈ 0.394 µM) | MIC [6]: 0.13 µg/mL (≈ 0.205 µM) | MIC [7]: 1 µg/mL (≈ 1.58 µM) | MIC [8, 22]: 4 µg/mL (≈ 6.3 µM) | MIC [9]: 4 µg/mL (≈ 6.3 µM) | MIC [10, 23]: 1 µg/mL (≈ 1.58 µM) | MIC [11, 24]: 0.063 µg/mL (≈ 0.0993 µM) | MIC [12, 25]: 4 µg/mL (≈ 6.3 µM) | MIC [13, 26]: 0.016 µg/mL (≈ 0.0252 µM) | MIC [14, 27]: 0.25 µg/mL (≈ 0.394 µM) | MIC [15, 28]: 2 µg/mL (≈ 3.15 µM) | MIC [16, 29]: 4 µg/mL (≈ 6.3 µM)

CC(C)(O/N=C(\C(=O)N[C@@H]1C(=O)N2C(C(=O)[O-])=C(C[n+]3ccccc3)CS[C@H]12)c1csc(N)n1)C(=O)O [ceftazidime, Ceftazidime, reference compound]
MIC ([1]; 20 h): 16 µg/mL (≈ 29.3 µM) | MIC ([2]; 20 h): 4 µg/mL (≈ 7.32 µM) | MIC ([3]; 20 h): 64 µg/mL (≈ 117 µM) | MIC ([4]; 20 h): 0.25 µg/mL (≈ 0.457 µM) | MIC ([5]; 20 h): 0.25 µg/mL (≈ 0.457 µM) | MIC [6]: 0.28 µg/mL (≈ 0.512 µM) | MIC [7]: 8 µg/mL (≈ 14.6 µM) | MIC ([8]; 20 h): 2 µg/mL (≈ 3.66 µM) | MIC [9]: > 128 µg/mL | MIC ([10]; 20 h): 1 µg/mL (≈ 1.83 µM) | MIC ([11]; 20 h): 0.031 µg/mL (≈ 0.0567 µM) | MIC ([12]; 20 h): 32 µg/mL (≈ 58.5 µM) | MIC ([13]; 20 h): 0.063 µg/mL (≈ 0.115 µM) | MIC ([14]; 20 h): 0.25 µg/mL (≈ 0.457 µM) | MIC ([15]; 20 h): 2 µg/mL (≈ 3.66 µM) | MIC ([16]; 20 h): 32 µg/mL (≈ 58.5 µM)
